Source: patent publication US11903908B2, “Methods of administering amantadine” (Adamas Pharma, LLC, priority 2013, dated 2024)
Counter-ions that a name gives are not always drawn. Like-named read-outs stand apart in the source and are kept apart here.

How the values were obtained:
[1] = system: subjects with Parkinson's Disease (PD) who have levodopa-induced dyskinesia (LID); test: Randomized, double-blind, placebo-controlled study of Amantadine ER capsules for levodopa-induced dyskinesia in Parkinson's Disease (Example 5)
Excerpt: Study Objectives: This study was designed to evaluate the efficacy of three dose levels of Amantadine Extended Release (ER) oral capsules dosed once nightly at nighttime for the treatment of levodopa-induced dyskinesia (LID) in subjects with Parkinson's Disease (PD). […] Study design: This was a multi-center, randomized, double-blind, placebo-controlled, 4-arm parallel group study of Amantadine ER in subjects with PD who have LID.
Subjects who were randomized to Treatment C received, in double-blind fashion, 260 mg Amantadine ER once nightly during week 1, with an increase to 340 mg once nightly at the beginning of week 2. Subjects who were randomized to Treatment D, in double-blind fashion, 260 mg Amantadine ER once nightly during week 1, with an increase to 340 mg Amantadine ER once nightly during week 2, with a further increase to 420 mg once nightly at the beginning of week 3. Dosing for all groups continued at the nominal dose through week 8.
Following completion of the baseline visit and randomization, subjects returned to the clinic after 1, 2, 4, 6, and 8 weeks of dosing, with a follow-up visit 14 days following the last dose of study drug. Study visits and assessments were scheduled during the hours between 10 am through 4 pm. A set of two 24-hour diaries were be completed during 48 hours prior to randomization and 48 hours prior to selected study visits. The diary was used to score five different conditions in 30-minute intervals: Sleep, OFF, ON without dyskinesias, ON with nontroublesome dyskinesias, ON with troublesome dyskinesias.
Blood samples were collected at selected study visits for determination of amantadine plasma concentrations, and evaluation of steady-state population pharmacokinetics. Subject participation during the study was up to 12 weeks including a 2-week (maximum) screening period, 8-week (maximum) treatment period, and a 2-week follow-up period. Subjects unable to tolerate their assigned study drug assignment permanently discontinued study drug and continued to be followed for safety through 2 weeks following the last dose of study drug. […]

[2] = system: PD patients with levodopa-induced dyskinesia (LID); details: cited from earlier work
[3] = amantadine IR 200 mg/day, PD patients

For `NC12CC3CC(CC(C3)C1)C2` [amantadine, Amantadine HCl], the discontinuation rates ([1]; 420 mg once nightly) was “higher discontinuation rates”, the “frequency of side effects” value ([1]; 420 mg once nightly) was “comparable frequency of side effects” and the tolerability ([1]; 260-420 mg once nightly, Parkinson's disease patients) was “well tolerated”. The “reduction in LID” value [2, 3] was “approximately 25%”, the tolerability [2, 3] was “generally tolerated by the majority of PD patients” and the CNS side effects ([2]; amantadine IR 300 mg/day or higher) was “associated with central nervous system (CNS) side effects”. For the same compound, the “reduction of LID” value ([2]; amantadine IR 300 mg/day, PD patients) was roughly 40%, the “reduction of LID” value ([2]; amantadine IR 300 to 400 mg/day, one study) was roughly 60% and the “effect on motor fluctuations (ON/OFF)” value ([2]; later stages of PD) was “no effect”.
